A word on the inhibition: it is the percentage by which the read-out fell short of the control. Usually Km stands for the substrate concentration at which the rate is half of its maximum.

One data set has as its target T1, FosAPA (Pseudomonas aeruginosa, UniProt Q9I4K6).
T1 construct: gene fosA
The experiment in a line: DTNB ([…] nm) assay of GSH conjugation, time course. The class given is biochemical. As to conditions: 10 mM Fos, 15 mM GSH, 0.1 M sodium phosphate pH 8, 100 mM KCl, 0.05 mM MnCl2, 25 °C.

The next data set concerns the target T2, FosAKP (Klebsiella pneumoniae, UniProt A0A086IRG1).
T2 construct: gene fosA
The experiment in a line: DTNB ([…] nm) activity assay; crystal structure of complex ([…] Å). Format: biochemical. As to conditions: read-out: % inhibition at 5 mM.

For data set [1], the system named is C[C@@H]1O[C@@H]1P(=O)(O)O. In words: purified protein. As to conditions: free enzyme, 15 mM GSH, 0.1 M sodium phosphate pH 8, 100 mM KCl, 0.05 mM MnCl2, 25 °C, also bound in active site of crystal structure. The class given is biochemical, Klebsiella pneumoniae.

T1 sequence (Q9I4K6 whole entry): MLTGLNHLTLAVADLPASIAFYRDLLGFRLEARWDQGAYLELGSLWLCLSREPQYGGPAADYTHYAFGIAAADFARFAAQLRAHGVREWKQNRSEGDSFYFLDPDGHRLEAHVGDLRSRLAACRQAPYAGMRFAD
T2 sequence (A0A086IRG1 entry or part of it): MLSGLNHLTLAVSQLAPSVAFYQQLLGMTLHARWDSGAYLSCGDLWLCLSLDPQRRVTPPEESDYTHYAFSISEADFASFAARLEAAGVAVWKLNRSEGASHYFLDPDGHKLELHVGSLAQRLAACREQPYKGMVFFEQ

In the case of `C[C@@H]1O[C@@H]1P(=O)(O)O` [Fosfomycin, (1R,2S)-epoxypropylphosphonic acid], the “DTNB (412 nm) assay of GSH conjugation, time course” value on FosAPA was “time course of Fos conjugation with GSH, catalyzed by FosAPA and FosAKP”.

For `O=C(O)C(O)C(O)C(=O)O` (stereo not drawn) [Tar], the inhibition at 5000 µM on FosAKP was found to be 20.7%. As for FosAKP (Klebsiella pneumoniae), the Km in data set [1] is 2.2 ± 0.3 mM.

The values above are taken from article PMC10779102, “Structural Studies of Klebsiella pneumoniae Fosfomycin-Resistance Protein and Its Application for the Development of an Optical Biosensor for Fosfomycin Determination” (International Journal of Molecular Sciences, 2023).
